No end group written: not given here. *: point of attachment. Myristoyl = CCCCCCCCCCCCCC(=O)*
How the values were obtained:
[1] = system: over-expressed PKC isoforms; test: Translocation of over-expressed PKC isoforms by PKC activator in infected keratinocytes; format: cell-based, mouse; conditions: stimulated for 30 minutes, 24 hours following infection
Protocol: Four day old primary keratinocytes were infected for 1 hour with isoform specific recombinant PKC adenoviruses. Twenty four hours following infection, cells were either untreated (C) or stimulated with bryostatin 1 (B) for 30 minutes, and fractionated. Protein samples were subjected to Western blotting and analyzed using isoform specific anti-PKC antibodies.
Preparation of cell extracts and Western blot analysis: For crude membrane fractions, whole cell lysates were prepared by scraping cells into PBS containing 10 μg/ml aprotinin, 10 μg/ml leupeptin, 2 μg/ml pepstatin, 1 mM PMSF, 10 mM EDTA, 200 μM NaVO4 and 10 mM NaF. After homogenization and 4 freeze/thaw cycles, lysates were spun down at 4° C. for 20 minutes in a microcentrifuge at maximal speed. The supernatant containing the soluble cytosol protein fraction was transferred to another tube. The pellet was resuspended in 250 μl PBS containing 1% Triton X-100 with protease and phosphatase inhibitors, incubated for 30 minutes at 4° C. and spun down in a microcentrifuge at maximal speed at 4° C. The supernatant contains the membrane fraction. Protein concentrations were measured using a modified Lowery assay (Bio-Rad DC Protein Assay Kit). Western blot analysis of cellular protein fractions was carried out as described (6). […]

STAT3 = test: Insulin induced STAT3 activation and nuclear translocation in keratinocytes (immunofluorescence); format: cell-based, murine; conditions: 5 μM Rottlerin for 7 minutes, followed by 10^−7 M insulin for 5 minutes
Protocol: Primary keratinocytes were plated on glass slides and maintained for 5 days in low Ca^++ medium (0.05 mmol/l) until they reached 80% confluency. Cells were untreated (Cont, upper panel) or pre-treated with 5 μM Rottlerin for 7 minutes (R, lower panel), followed by 10^−7 M insulin for 5 minutes (Ins). Cells were fixed by methanol, washed and air-dried. Cultures were analyzed by immunofluorescence using antiphospho-Tyr-705-STAT3 antibody, followed by FITC conjugated secondary antibody. Cells were scanned by confocal microscopy.
Immunofluorescence: Primary keratinocytes were plated on laminin 5 coated glass slides. Two days old keratinocytes were infected with PKC adenovirus for one hour, washed twice with PBS and maintained in culture in low Ca^2+ EMEM. Twenty four hours post infection, cells were fixed in 4% paraformaldehyde for 30 minutes followed by permeabilization with 0.2% Triton for 5 minutes. For analysis, control and PKC infected keratinocytes were rinsed with PBS and incubated overnight at 4° C. with PKC antibodies (Santa Cruz) diluted in 1% BSA in PBS. […] Following two washes in PBS, slides were mounted with glycerol buffer containing 1% of p-phenylenediamine (Sigma) and fluorescence examined by laser scanning confocal imaging microscopy (MRC 1024, Bio-Rad, UK).

primary keratinocytes = test: Keratinocyte proliferation by [3H]thymidine incorporation; format: cell-based, murine; conditions: for concentration of maximal induction of thymidine incorporation: stimulated for 24 hours, proliferating keratinocytes in low Ca2+
Protocol: Proliferating keratinocytes were maintained for five days in low Ca^2+ medium (0.05 mM) until they reached 80% confluence. (A) Five-day keratinocyte cultures were stimulated for 24 hours with insulin or IGF1 at the designated concentrations. (B) In parallel, keratinocytes were stimulated with 10^−7 M insulin (Ins) and increasing doses of IGF1 (IGF). At each concentration the right column (striped bar) represents proliferation observed when both hormones were added together. […] Thymidine incorporation was measured as described in experimental procedures. The results shown are representative of 6 experiments. Each bar represents the mean±SE of 3 determinations expressed as percent above control unstimulated keratinocytes.
Non-infected (light blue bars), or cells over-expressing WTPKCδ (dark blue bars) or DNPKCδ (slashed blue bars) were treated for 24 hours with 10^−7 M insulin (Ins), 10^−8 M IGF1 (IGF) or both (Ins+IGF). Thymidine incorporation was measured as described in experimental procedures. Each bar represents the mean±SE of 3 determinations in 3 experiments done on separate cultures. Values are expressed as percent of control, unstimulated cells from the same culture in each experiment.
Isolation and culture of murine keratinocytes: Primary keratinocytes were isolated from newborn skin as previously described (18). Keratinocytes were cultured in Eagle's Minimal Essential Medium (EMEM) containing 8% Chelex (Chelex-100, BioRad) treated fetal bovine serum. To maintain a proliferative basal cell phenotype, the final Ca^2+ concentration was adjusted to 0.05 mM. Experiments were performed five to seven days after plating.
Cell proliferaion: Cell proliferation was measured by [^3H]thymidine incorporation in 24 well plates. Cells were pulsed with [^3H]thymidine (1 μCi/ml) overnight. After incubation, cells were washed five times with PBS and 5% TCA was added into each well for 30 minutes. The solution was removed and cells were solubilized in 1% Triton X-100. The labeled thymidine incorporated into cells was counted in a ^3H-window of a Tricarb liquid scintillation counter.

[2] = system: incision wounds on the back of C57BL mice; test: Single vs. multiple applications of insulin for wound healing in vivo (Example 20)
Protocol: Wounds were effected on the back of 8-10 week old C57BL mice by incision and were treated with different concentrations and frequencies of insulin applications (i.e., seven daily repeat applications vs. a single application). The treated mice were sacrificed seven days after wounding and the areas of treated wounds were measured. The results are presented as mm^2 wound area and each bar represents the mean of six replications±standard deviation (p<0.005).
Wounds were effected on the back of 8-10 week old C57BL mice by incision and were treated with different concentrations of insulin and frequencies of applications (i.e., seven daily repeat applications vs. a single application). Histological wound sections were performed seven days after wounding and were analyzed for epidermal and dermal closure (wound contraction). Epidermal closure was assessed by Keratin 14 (K14) antibody staining (left panel) and was considered positive if the wound was stained positive across the entire gap. The dermal closure was considered positive if both dermal wound sides could be observed under a light microscope in a single field at ×10 magnification (right panel). The results are presented as percent of wound closure over control and each bar represents the mean of six replications.
Wounds were effected on the back of 8-10 week old C57BL mice by incision and were treated as follows: (i) insulin 0.1 μM applied daily for 7 days; (ii) insulin 1 μM applied daily for 7 days; (iii) insulin 10 μM applied daily for 7 days; (iv) insulin 1 μM applied once 4 days after wounding; and (v) vehicle (PBS) control applied daily for 7 days. All mice were sacrificed seven days after wounding and their open wound areas were measured.
Since the observed wounds were covered with a scar tissue it was difficult to correctly assess the actual closure of the wound and the formation of reconstructed epidermis. Therefore the effects of insulin on epidermal and dermal closure of wounds tissue were determined by histological parameters. Epidemial closure of wounds was determined by staining wound sections with Keratin 14 antibody (K14, Babco-Convance, Richmond, Calif., USA) which highlighted the formation of basal cells at the wound gap. Dermal closure of wounds was considered positive if both wound sides the dermis could be observed in a single field observed under a light microscope at ×10 magnification.

PKCs α, ε, η, or ζ = test: Kinase activity of other PKC isoforms after insulin stimulation of keratinocytes; format: cell-based, murine; conditions: up to 30 minutes following insulin stimulation
Protocol: (§1) PKC activity: Specific PKC activity was determined in freshly prepared immunoprecipitates from keratinocyte cultures following appropriate treatments. These lysates were prepared in RIPA buffer without NaF. Activity was measured with the use of the SignaTECT Protein Kinase C Assay System (Promega, Madison, Wis., USA) according to the manufacturer's instructions. PKCα pseudosubstrate was used as the substrate in these studies.
(§2) In order to determine whether the translocation of PKCδ is sufficient for activation, kinase activity of PKC immunoprecipitates from the cytoplasm and membrane fractions of insulin and IGF1 treated keratinocytes was measured.

[3] = system: incision wounds on the back of C57BL mice; test: Effect of PKCα inhibitor and insulin on wound inflammation in vivo (Example 23); conditions: for Incidence of severe inflammation I wound (%): treated daily for 7 days, 1 μM of each agent, observed seven days after wounding
Protocol: Late and severe inflammatory response in wounds may suppress the process of healing, thus preventing such inflammation from development may promote the wound healing process. Accordingly, the effect of PKCα inhibitor and insulin on wound inflammation was tested in the following experiment. Wounds were effected on the back of C57BL mice by incision and were treated daily for 7 days with: (i) PBS, control; (ii) 1 μM of a PKCα inhibitor (pseudosubstrate myristolated; Calibiochem, USA); (iii) 1 μM insulin (Eli Lilly, USA); or a mixture of 1 μM PKCα inhibitor and 1 μM insulin.

PKCδ [4] = test: Translocation of PKCδ from cytosol to membrane in proliferating keratinocytes (Western blot); format: cell-based, murine; conditions: 10^−7 M insulin or 10^−8 M IGF1; as early as 5 minutes following stimulation
Protocol: Primary keratinocytes were isolated and plated as described in the Examples section that follows. Proliferating keratinocytes were maintained for five days in low Ca^2+ medium (0.05 mM) until they reached 80% confluency. Cells were stimulated with 10^−7 M insulin (Ins) or 10^−8 M IGF1 (IGF) for 15 minutes. Cells were lysed, as described, and 20 μg of membrane or cytosol extracts of stimulated and control unstimulated (Cont) cells were subjected to SDS-PAGE and transfer. Blots were probed with specific polyclonal antibodies to each PKC isoform.
Isolation and culture of murine keratinocytes: Primary keratinocytes were isolated from newborn skin as previously described (18). […]
Preparation of cell extracts and Western blot analysis: For crude membrane fractions, whole cell lysates were prepared by scraping cells into PBS containing 10 μg/ml aprotinin, 10 μg/ml leupeptin, 2 μg/ml pepstatin, 1 mM PMSF, 10 mM EDTA, 200 μM NaVO4 and 10 mM NaF. […] Protein concentrations were measured using a modified Lowery assay (Bio-Rad DC Protein Assay Kit). […]
In order to try and identify the endogenous factors, which activate specific PKC isoforms regulating skin proliferation, the ability of several growth factors which are known to promote keratinocyte proliferation including: EGF, KGF, insulin, PDGF and IGF1 to activate specific PKC isoforms in a growth dependent manner was assessed. […]

PKCδ [5] = test: PKCδ kinase activity of immunoprecipitates from stimulated keratinocytes; format: cell-based, murine; conditions: 10^−7 M insulin or 10^−8 M IGF1 for 1, 15 or 30 minutes
Protocol: To determine PKCδ activity, five-day keratinocyte cultures were stimulated with 10^−7 M insulin (Ins) or 10^−8 M IGF1 (IGF) for the designated times (1, 15, or 30 minutes). PKCδ was immunoprecipitated from membrane (blue bars, mem) and cytosol (purple bars, cyto) fractions using specific anti-PKCδ antibody. PKCδ immunoprecipitates were analyzed for PKC activity utilizing an in vitro kinase assay as described in experimental procedures. Each bar represents the mean±SE of 3 determinations in 3 separate experiments. Values are expressed as pmol ATP/dish/min.
as §1, §2

`CCC/C=C/C=C/C(=O)O[C@H]1/C(=C/C(=O)OC)C[C@H]2C[C@H]([C@@H](C)O)OC(=O)C[C@H](O)C[C@@H]3C[C@H](OC(C)=O)C(C)(C)[C@](O)(C[C@@H]4C/C(=C/C(=O)OC)C[C@H](/C=C/C(C)(C)[C@]1(O)O2)O4)O3` [bryostatin 1] was tested, and the “translocation of PKCα and δ proteins to the membrane fraction” value [1] was “induced translocation” and the “translocation of PKCη and ζ isoforms to the membrane fraction” value [1] was “lesser effect”.
`CC(=O)c1c(O)c(C)c(O)c(Cc2c(O)c3c(c(C(=O)/C=C/c4ccccc4)c2O)OC(C)(C)C=C3)c1O` [rottlerin] was tested, and the “activation and nuclear translocation of STAT3 after insulin” value (STAT3) was “inhibits activation as well as nuclear translocation of STAT3”.
In the case of “insulin: humulinR-recombinant human insulin, purchased from Eli Lilly”, the “concentration of maximal induction of thymidine incorporation” value (primary keratinocytes) is reported as 10^−7 M, the “increase of thymidine incorporation over untreated cells” value (primary keratinocytes; untransfected cells, 10^−7 M insulin for 24 hours) is reported as “two to three fold” and the open wound area ([2]; 1 μM applied once 4 days after wounding, compared with seven repeat daily applications at 1 μM) is reported as “substantially more effective”. The open wound area ([2]; 1 μM daily for 7 days, compared with daily 0.1 μM or 10 μM) was “significantly more effective”, the “epidermal and dermal closure (histology)” value ([2]; 1 μM daily, compared with daily 0.1 μM or 10 μM) was “significantly more effective” and the “epidermal and dermal closure (histology)” value ([2]; all insulin treatments (0.1, 1, 10 μM daily; 1 μM single)) was “effectively promoted epidermal and dermal closure”. The “epidermal and dermal closure (histology)” value ([2]; single application 1 μM, compared with seven repeat daily applications at 1 μM) was “substantially more effective”, the “activation of PKCs α, ε, η, or ζ” value (PKCs α, ε, η, or ζ) was “no activation” and the “effect on severe wound inflammation” value ([3]; 1 μM daily for 7 days) was “not effective”. For the same compound, the “Incidence of severe inflammation I wound (%)” value [3] was 56.0%, the “translocation of PKCδ between cytoplasm and membrane fractions” value (PKCδ [4]) was “specifically induced translocation of PKCδ from the cytoplasm to the membranal fractions” and the “activity of PKCδ in the membrane fraction” value (PKCδ [5]) was “increased activity of PKCδ”.
In the case of “IGF1: growth factor IGF1, a gift from Cytolab (Israel)”, the “maximal stimulation of thymidine incorporation, compared at each concentration” value (primary keratinocytes; 24 hours) is reported as “greater than that by insulin”, the “concentration of maximal induction of thymidine incorporation” value (primary keratinocytes) is reported as 10^−8 M and the “translocation of PKCδ between cytoplasm and membrane fractions” value (PKCδ [4]) is reported as “reduced PKCδ expression in the membrane”. The “activity of PKCδ in the membrane fraction” value (PKCδ [5]) was “insulin but not IGF1 increased activity of PKCδ”.
In the case of “PKCα inhibitor: PKCα inhibitor of SEQ ID NO:1, PKCα pseudosubstrate myristoylated; Calbiochem (Myristoyl-FARKGALRQ)”, the “decrease of severe wound inflammation incidence, as compared to control” value ([3]; 1 μM daily for 7 days) is reported as 33.3% and the “Incidence of severe inflammation I wound (%)” value [3] is reported as 40.0%.

Reference: US8093211B2, “Methods and pharmaceutical compositions for healing wounds” (Bar-Ilan University, priority 2001, dated 2012)
